Measurements from patent publication US20220177538A1, “CO-AGONISTS AT GLP-1 AND GIP RECEPTORS SUITABLE FOR ORAL DELIVERY” (Novo Nordisk A/S, priority 2020, published 2022).
Where two headings read alike, the source gives them in different places. Starred links: 1 amine or outer side, 2 acyl side, 3 side chain; linkers in the order of their positions; H or OH if unused. Non-standard residues stand in square brackets, D forms with d. Residues, ends and D or L forms follow the SMILES beside them. Groups on a side chain read outwards from the residue. *: point of attachment. C18 diacid = O=C(O)CCCCCCCCCCCCCCCCC(=O)*; γGlu = O=C(O)[C@H](CCC(=O)[*:2])N[*:1]; εLys = N[C@@H](CCCCN[*:1])C(=O)[*:2]; Aib = CC(C)(N)C(=O)O

How the values were obtained:
human GLP-1 receptor = human GLP-1 receptor (Homo sapiens, UniProt P43220); experiment: In vitro functional potency, CRE luciferase reporter, whole BHK cells (hGLP-1R); type: cell-based; design: expressed in transfected cells; host or cells: BHK (parent line BHKTS13), clone BHK CRE luc2P hGLP-1R; details: BHK CRE luc2P hGLP-1R cells
Procedure: (§1) The in vitro functional potency is the measure of target receptor activation in a whole cell assay.
(§2) In vitro functional potency was determined by measuring the response of the target receptor in a reporter gene assay in individual cell lines. […] When the respective receptor is activated, it results in the production of cAMP, which in turn results in expression of the luciferase protein. When assay incubation is completed, luciferase substrate (luciferin) is added resulting in the enzymatic conversion of luciferin to oxyluciferin and producing bioluminescence. The luminescence is measured as the readout for the assay.
(§3) The cells lines used in these assays were BHK cells with BHKTS13 as a parent cell line. The cell lines were derived from a clone containing the CRE luciferase element and were established by further transfection with the respective human receptor to obtain the relevant cell line: BHK CRE luc2P hGLP-1R or BHK CRE luc2P hGIPR. The cells were cultured at 37° C. with 5% CO2 in Cell Culture Medium. They were aliquoted and stored in liquid nitrogen. The cells were kept in continuous culture and were seeded out the day before each assay.
(§4) GLP-1R Cell Culture Medium consisted of DMEM medium with 10% FBS, 500 µg/mL G418, and 300 µg/mL hygromycin. GIPR Cell Culture Medium consisted of DMEM medium with 10% FBS, 400 µg/mL G418, and 300 µg/mL hygromycin. Assay Buffer consisted of DMEM w/o phenol red, 10 mM Hepes, 1× Glutamax. 1% ovalbumin, and 0.1% Pluronic F-68 with the addition of HSA at twice the final assay concentration.
(§5) 1) Cells were plated at 5000 cells/well and incubated overnight in the assay plate. 2) Cells were washed once in DPBS. 3) Stocks of the test compounds and reference compounds in concentrations ranging from […] were diluted 1:150 in Assay Buffer. Compounds were then diluted 1:10 in column 1 of a 96 deep well dilution plate and then carried across the row creating a 3.5 fold, 12 point dilution curve. 4) Assay Buffer (50 μl aliquot) with or without HSA was added to each well in the assay plate. 5) A 50 μl aliquot of compound or blank was transferred from the dilution plate to the assay plate containing the Assay Buffer with or without HSA. 6) The assay plate was incubated for 3 h in a 5% CO2 incubator at 37° C. 7) The cells were washed once with DPBS. 8) A 100 μl aliquot of DPBS was added to each well of the assay plate. 9) A 100 μl aliquot of steadylite plus reagent (light sensitive) was added to each well of the assay plate. 10) Each assay plate was covered with aluminum foil to protect it from light and shaken at 250 RPM for 30 min at room temperature. 11) Each assay plate was read in a microtiter plate reader.
(§6) The data from the microtiter plate reader was first regressed in an Excel in order to calculate the x-axis, log scale concentrations based on the individual test compound's stock concentration and the dilutions of the assay. […] The software performs a non-linear regression (log(agonist) vs response). A minimum of two replicates was measured for each sample. The reported values are averages of the replicates.

human GIP receptor = target: T1, human GIP receptor (Homo sapiens, UniProt P48546); experiment: In vitro functional potency, CRE luciferase reporter, whole BHK cells (hGIPR); type: cell-based; details: BHK CRE luc2P hGIPR cells
T1 construct: expressed in transfected cells; host or cells: BHK (parent line BHKTS13), clone BHK CRE luc2P hGIPR
T1 sequence (P48546 22-466): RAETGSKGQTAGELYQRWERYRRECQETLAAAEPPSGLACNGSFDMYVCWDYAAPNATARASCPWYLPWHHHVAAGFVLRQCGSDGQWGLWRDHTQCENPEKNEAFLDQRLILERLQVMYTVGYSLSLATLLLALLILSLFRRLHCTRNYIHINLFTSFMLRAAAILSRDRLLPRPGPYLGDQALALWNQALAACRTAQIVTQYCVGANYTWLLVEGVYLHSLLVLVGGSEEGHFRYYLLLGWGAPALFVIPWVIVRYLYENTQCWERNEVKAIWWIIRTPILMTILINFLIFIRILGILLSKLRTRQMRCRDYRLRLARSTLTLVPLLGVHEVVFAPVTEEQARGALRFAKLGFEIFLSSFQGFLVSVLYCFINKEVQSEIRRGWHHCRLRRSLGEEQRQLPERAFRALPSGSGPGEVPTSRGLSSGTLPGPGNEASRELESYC
Procedure: as §1, §2, §3, §4, §5, §6

[1] = 0% HSA, read-out: hGLP-1R, CRE Luc 0% HSA EC50
[2] = hGLP-1R, CRE Luc 1% HSA EC50, 1% HSA
[3] = 0% HSA, read-out: hGIPR, CRE Luc 0% HSA EC50
[4] = hGIPR, CRE Luc 1% HSA EC50, 1% HSA

human GLP-1 receptor, sequence (P43220 24-463): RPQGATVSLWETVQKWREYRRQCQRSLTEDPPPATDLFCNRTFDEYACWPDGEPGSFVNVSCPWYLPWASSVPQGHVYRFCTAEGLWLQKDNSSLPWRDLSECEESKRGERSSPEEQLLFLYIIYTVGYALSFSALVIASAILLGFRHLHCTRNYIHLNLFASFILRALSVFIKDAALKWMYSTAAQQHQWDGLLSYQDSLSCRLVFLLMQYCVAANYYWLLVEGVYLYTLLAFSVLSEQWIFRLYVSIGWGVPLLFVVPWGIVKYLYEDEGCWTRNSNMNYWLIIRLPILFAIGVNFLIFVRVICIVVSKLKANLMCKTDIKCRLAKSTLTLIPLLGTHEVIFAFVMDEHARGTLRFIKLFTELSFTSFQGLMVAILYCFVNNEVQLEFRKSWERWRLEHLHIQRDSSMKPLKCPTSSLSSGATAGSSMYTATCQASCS

Row | SMILES | EC50 (human GLP-1 receptor; [1]) [pM] | EC50 (human GLP-1 receptor; [2]) [pM] | EC50 (human GIP receptor; [3]) [pM] | EC50 (human GIP receptor; [4]) [pM]
1 | CC[C@H](C)[C@H](NC(=O)[C@H](Cc1ccccc1)NC(=O)[C@H](CCC(=O)O)NC(=O)[C@H](CCCNC(=N)N)NC(=O)[C@H](C)NC(=O)[C@H](C)NC(=O)[C@H](CCC(N)=O)NC(=O)[C@H](CCCCNC(=O)[C@@H](N)CCCCNC(=O)[C@@H](N)CCCCNC(=O)CC[C@H](NC(=O)CCCCCCCCCCCCCCCCC(=O)O)C(=O)O)NC(=O)[C@H](CCC(=O)O)NC(=O)[C@H](CC(C)C)NC(=O)[C@H](CC(C)C)NC(=O)[C@@H](NC(=O)[C@H](CO)NC(=O)[C@H](Cc1ccc(O)cc1)NC(=O)[C@H](CC(=O)O)NC(=O)[C@H](CO)NC(=O)[C@@H](NC(=O)[C@H](Cc1ccccc1)NC(=O)[C@@H](NC(=O)CNC(=O)[C@H](CCC(=O)O)NC(=O)C(C)(C)NC(=O)[C@@H](N)Cc1ccc(O)cc1)[C@@H](C)O)[C@@H](C)O)[C@@H](C)CC)C(=O)N[C@@H](CCC(N)=O)C(=O)N[C@@H](Cc1c[nH]c2ccccc12)C(=O)N[C@@H](CC(C)C)C(=O)N[C@@H](CC(C)C)C(=O)N[C@@H](C)C(=O)NCC(=O)NCC(=O)N1CCC[C@H]1C(=O)N[C@@H](CO)C(=O)N[C@@H](CO)C(=O)NCC(=O)N[C@@H](C)C(=O)N1CCC[C@H]1C(=O)N1CCC[C@H]1C(=O)N1CCC[C@H]1C(=O)N[C@@H](CO)C(=O)O [Compound 23] (H-Y[Aib]EGTFTSDYSILLEK([εLys-εLys-γGlu-C18 diacid])QAAREFIQWLLAGGPSSGAPPPS-OH) | 4.1 | 118 | 6.7 | 134
2 | CC[C@H](C)[C@H](NC(=O)[C@H](Cc1ccccc1)NC(=O)[C@H](CCC(=O)O)NC(=O)[C@H](CCCNC(=N)N)NC(=O)[C@H](C)NC(=O)[C@H](C)NC(=O)[C@H](CCC(N)=O)NC(=O)[C@H](CCCCNC(=O)[C@@H](N)CCCCNC(=O)[C@@H](N)CCCCNC(=O)CC[C@H](NC(=O)CCCCCCCCCCCCCCCCC(=O)O)C(=O)O)NC(=O)[C@H](CCC(=O)O)NC(=O)[C@H](CC(C)C)NC(=O)[C@H](CC(C)C)NC(=O)[C@@H](NC(=O)[C@H](CO)NC(=O)[C@H](Cc1ccc(O)cc1)NC(=O)[C@H](CC(=O)O)NC(=O)[C@H](CO)NC(=O)[C@@H](NC(=O)[C@H](Cc1ccccc1)NC(=O)[C@@H](NC(=O)CNC(=O)[C@H](CCC(=O)O)NC(=O)C(C)(C)NC(=O)[C@@H](N)Cc1ccc(O)cc1)[C@@H](C)O)[C@@H](C)O)[C@@H](C)CC)C(=O)N[C@@H](CCC(=O)O)C(=O)N[C@@H](Cc1c[nH]c2ccccc12)C(=O)N[C@@H](CC(C)C)C(=O)N[C@@H](CC(C)C)C(=O)N[C@@H](CCCNC(=N)N)C(=O)NCC(=O)NCC(=O)N1CCC[C@H]1C(=O)N[C@@H](CO)C(=O)N[C@@H](CO)C(=O)NCC(=O)N[C@@H](C)C(=O)N1CCC[C@H]1C(=O)N1CCC[C@H]1C(=O)N1CCC[C@H]1C(=O)N[C@@H](CO)C(=O)O [Compound 27] (H-Y[Aib]EGTFTSDYSILLEK([εLys-εLys-γGlu-C18 diacid])QAAREFIEWLLRGGPSSGAPPPS-OH) | 4.6 | 127 | 6.3 | 132
3 | CC[C@H](C)[C@H](NC(=O)[C@H](Cc1ccccc1)NC(=O)[C@H](CCC(=O)O)NC(=O)[C@H](CCCNC(=N)N)NC(=O)[C@H](C)NC(=O)[C@H](C)NC(=O)[C@H](CCC(N)=O)NC(=O)[C@H](CCCCNC(=O)[C@@H](N)CCCCNC(=O)[C@@H](N)CCCCNC(=O)CC[C@H](NC(=O)CCCCCCCCCCCCCCCCC(=O)O)C(=O)O)NC(=O)[C@H](CCC(=O)O)NC(=O)[C@H](CC(C)C)NC(=O)[C@H](CC(C)C)NC(=O)[C@@H](NC(=O)[C@H](CO)NC(=O)[C@H](Cc1ccc(O)cc1)NC(=O)[C@H](CC(=O)O)NC(=O)[C@H](CO)NC(=O)[C@@H](NC(=O)[C@@H](NC(=O)[C@@H](NC(=O)CNC(=O)[C@H](CCC(=O)O)NC(=O)C(C)(C)NC(=O)[C@@H](N)Cc1ccc(O)cc1)[C@@H](C)O)C(C)C)[C@@H](C)O)[C@@H](C)CC)C(=O)N[C@@H](CC(N)=O)C(=O)N[C@@H](Cc1c[nH]c2ccccc12)C(=O)N[C@@H](CC(C)C)C(=O)N[C@@H](CC(C)C)C(=O)N[C@@H](C)C(=O)NCC(=O)NCC(=O)N1CCC[C@H]1C(=O)N[C@@H](CO)C(=O)N[C@@H](CO)C(=O)NCC(=O)N[C@@H](C)C(=O)N1CCC[C@H]1C(=O)N1CCC[C@H]1C(=O)N1CCC[C@H]1C(=O)N[C@@H](CO)C(=O)O [Compound 33] (H-Y[Aib]EGTVTSDYSILLEK([εLys-εLys-γGlu-C18 diacid])QAAREFINWLLAGGPSSGAPPPS-OH) | 14.8 | 361 | 2.9 | 103
4 | CC[C@H](C)[C@H](NC(=O)[C@H](Cc1ccccc1)NC(=O)[C@H](CCC(=O)O)NC(=O)[C@H](CCCNC(=N)N)NC(=O)[C@H](C)NC(=O)[C@H](C)NC(=O)[C@H](CCC(N)=O)NC(=O)[C@H](CCCCNC(=O)[C@@H](N)CCCCNC(=O)[C@@H](N)CCCCNC(=O)CC[C@H](NC(=O)CCCCCCCCCCCCCCCCC(=O)O)C(=O)O)NC(=O)[C@H](CCC(=O)O)NC(=O)[C@H](CC(C)C)NC(=O)[C@@H](NC(=O)[C@@H](NC(=O)[C@H](CO)NC(=O)[C@H](Cc1ccc(O)cc1)NC(=O)[C@H](CC(=O)O)NC(=O)[C@H](CO)NC(=O)[C@@H](NC(=O)[C@H](Cc1ccccc1)NC(=O)[C@@H](NC(=O)CNC(=O)[C@H](CCC(=O)O)NC(=O)C(C)(C)NC(=O)[C@@H](N)Cc1ccc(O)cc1)[C@@H](C)O)[C@@H](C)O)[C@@H](C)CC)[C@@H](C)CC)C(=O)N[C@@H](CC(N)=O)C(=O)N[C@@H](Cc1c[nH]c2ccccc12)C(=O)N[C@@H](CC(C)C)C(=O)N[C@@H](CC(C)C)C(=O)N[C@@H](C)C(=O)NCC(=O)NCC(=O)N1CCC[C@H]1C(=O)N[C@@H](CO)C(=O)N[C@@H](CO)C(=O)NCC(=O)N[C@@H](C)C(=O)N1CCC[C@H]1C(=O)N1CCC[C@H]1C(=O)N1CCC[C@H]1C(=O)N[C@@H](CO)C(=O)O [Compound 34] (H-Y[Aib]EGTFTSDYSIILEK([εLys-εLys-γGlu-C18 diacid])QAAREFINWLLAGGPSSGAPPPS-OH) | 6 | 186 | 8.3 | 213
